From article PMC6253875, “Synthesis and Evaluation of Non-peptidic Cysteine Protease Inhibitors of P. falciparum Derived from Etacrynic Acid” (Molecules, 2008)

Assays:
P. falciparum strain 3D7 = test: Antiplasmodial activity in vitro, Hoechst-33258 fluorometric assay or parasite lactate dehydrogenase test; type: cell-based; settings: Plasmodium falciparum, 3D7, read-out: P. f. 3D7/W2, IC50
Procedure: Recombinant falcipain-2 and falcipain-3 were produced as previously described. Inhibitory activities against recombinant falcipain-2 and falcipain-3 were evaluated in fluorometric microplate assays using the substrates Cbz-Phe-Arg-AMC and Cbz-Leu-Arg-AMC (AMC, 7-amino-4-methyl-coumarin). The cysteine protease inhibitor E-64 was used as a positive control. The solvent DMSO was used as negative control. […] The in vitro data for the etacrynic acid derivatives are compared to those of the well known drug chloroquine and to E-64.
IC50 values for inhibition of falcipain-2 and falcipain-3 were determined as described previously using the fluorogenic substrates Cbz-Phe-Arg-AMC and Cbz-Leu-Arg-AMC, respectively (AMC, 7-amino-4 methylcoumarin). As a positive control the well-known cysteine protease inhibitor E-64 [7, 25, 26] and as a negative control the solvent (DMSO) was used. Dose-dependent effects of compounds on parasite development (P. falciparum strain W2) were quantified by flow cytometry according to a previously published method. First, a screening with inhibitor concentrations of […] was performed and the percentage activity of infected red blood cells (RBCs) relative to the negative control was determined. […] Chloroquine and E-64 were used as positive controls, and the solvent DMSO was used as a negative control. For selected compounds assays with the P. falciparum strain 3D7 were performed using a fluorometric assay with Hoechst-33258 [28], or the microculture tetrazolium test measuring parasite lactate dehydrogenase activity. The parasites were cultivated in vitro as described previously. Compounds were screened at concentrations between 1 nM and 100 μM. Synchronized ring stages were plated in 96-well plates at a parasitemia of 1%, in the presence of the compounds (dissolved in DMSO). Incubation of parasites with DMSO alone at a concentration of 0.5% v/v was used as a negative control. IC50 values were calculated by non-linear regression analyses using the programs GaphPad® Prism 4 and GraFit® [31, 32].

P. falciparum strain W2 = settings: read-out: P. f. 3D7/W2, IC50; cited from earlier work

Compound: CCN(CC)CCCC(C)Nc1ccnc2cc(Cl)ccc12 (centres unmarked) [CQ, chloroquine, reference compound]
- IC50 (P. falciparum strain 3D7): 0.01 ± 0.0048 µM
- IC50 (P. falciparum strain W2): 0.24 µM
